Activity calls are given as the source filed them.
How the values were obtained:
[1] = inhibitors of PGC1a acetylation in cells, dose response, cell-based, cherry-picked samples (AID 720514); format: functional;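 further: potency may reflect raised or lowered acetylation signal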
[2] = P. falciparum Dd2 growth inhibitors, dose response, SYBR Green, cherry-picked samples (AID 1159567); format: functional, cell-based
[3] = cytotoxicity in HEK-293T cells, dose response, cytotoxicity control for BCR NF-kB inhibitor project, luminescence, B-cell screen hits (AID 489021); format: functional, cell-based;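 further: HEK-293T cells carrying an NF-kB luciferase reporter; cells exposed to compound for about 14 hours before viability readout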
[4] = HepG2 cell cytotoxicity, dose response, cytotoxicity control, cherry-picked samples (AID 1159577); format: functional, cell-based
[5] = inhibitors of intracellular T. cruzi replication, confirmation, NIH3T3 host cells, beta-gal luminescence (AID 2044); format: functional, cell-based;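 further: intracellular parasites grown in NIH/3T3 mouse fibroblasts as host cells; luminescent beta-galactosidase reporter signal from transgenic T. cruzi replicating inside host cells; inhibitors lower the luminescence signal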
[6] = cytotoxicity toward NIH3T3 fibroblasts, dose response, counter-screen, cell-based, ATP luminescence, mouse fibroblasts (AID 2010); format: functional;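 further: cells exposed to compound for about 90 hours before reading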
[7] = cytotoxicity in HPDE-C7 cells, cell-based, fluorescence, HTS (AID 430); format: functional; details: Homo sapiens
[8] = cytotoxicity in KRAS-transformed pancreatic duct cells, primary screen, cell-based, fluorescence, HTS (AID 431); format: functional; details: Homo sapiens;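 further: cell line used: HPDE-C7K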
[9] = molecular target: T1, Rac GTPase-activating protein 1 (Homo sapiens, UniProt Q9H0H5); assay: MgcRacGAP GTPase-activating activity inhibitors, confirmation, biochemical, ADP Hunter fluorescence, primary and confirmatory (AID 624330); format: functional
T1 sequence (Q9H0H5 whole entry): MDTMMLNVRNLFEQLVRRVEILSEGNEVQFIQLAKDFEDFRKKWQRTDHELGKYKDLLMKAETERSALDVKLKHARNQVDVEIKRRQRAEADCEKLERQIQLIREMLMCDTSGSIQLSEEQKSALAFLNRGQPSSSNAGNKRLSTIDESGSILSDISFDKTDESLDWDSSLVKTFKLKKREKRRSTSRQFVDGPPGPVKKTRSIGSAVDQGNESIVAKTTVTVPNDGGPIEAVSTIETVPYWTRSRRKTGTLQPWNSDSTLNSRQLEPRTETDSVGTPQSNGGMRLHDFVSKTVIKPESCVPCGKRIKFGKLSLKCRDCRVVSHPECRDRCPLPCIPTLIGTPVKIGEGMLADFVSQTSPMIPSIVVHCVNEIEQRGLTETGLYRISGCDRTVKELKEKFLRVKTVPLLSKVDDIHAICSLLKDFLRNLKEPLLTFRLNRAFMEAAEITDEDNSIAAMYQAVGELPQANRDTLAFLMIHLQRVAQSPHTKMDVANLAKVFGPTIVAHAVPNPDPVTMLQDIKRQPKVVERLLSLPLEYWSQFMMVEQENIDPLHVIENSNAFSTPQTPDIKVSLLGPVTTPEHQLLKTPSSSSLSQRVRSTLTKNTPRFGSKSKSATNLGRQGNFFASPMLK

Nonstructural protein 1 = Nonstructural protein 1 (Influenza A virus, UniProt Q194T2); format: functional, Influenza A virus (A/California/07/2009(H1N1))
[10] = molecular target: T2, Alkaline phosphatase, tissue-nonspecific isozyme (Homo sapiens, UniProt P05186); assay: human TNAP enzyme inhibitors, SAR follow-up, biochemical, luminescent, dose response (AID 1056)
T2 sequence (P05186 whole entry): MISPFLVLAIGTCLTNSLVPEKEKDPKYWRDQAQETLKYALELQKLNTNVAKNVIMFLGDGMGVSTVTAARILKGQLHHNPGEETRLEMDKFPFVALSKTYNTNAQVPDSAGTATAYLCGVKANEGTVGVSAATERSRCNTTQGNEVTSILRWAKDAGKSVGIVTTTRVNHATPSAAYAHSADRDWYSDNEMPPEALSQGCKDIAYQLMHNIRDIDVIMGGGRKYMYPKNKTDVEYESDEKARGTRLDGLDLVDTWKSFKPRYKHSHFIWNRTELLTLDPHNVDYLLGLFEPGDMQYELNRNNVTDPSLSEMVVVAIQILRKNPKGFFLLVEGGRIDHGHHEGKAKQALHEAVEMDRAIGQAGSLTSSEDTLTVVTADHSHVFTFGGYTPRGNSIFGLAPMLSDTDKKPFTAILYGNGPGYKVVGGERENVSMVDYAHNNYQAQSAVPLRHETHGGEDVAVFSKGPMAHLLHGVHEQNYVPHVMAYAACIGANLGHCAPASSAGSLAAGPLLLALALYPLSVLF

[11] = THP-1 cell cytotoxicity, dose response, cytotoxicity control for Vif-APOBEC3G degradation inhibitor project, THP-1 cells (AID 1117359); format: functional; details: Human immunodeficiency virus 1, THP-1
[12] = molecular target: Glyceraldehyde-3-phosphate dehydrogenase (Homo sapiens, UniProt P04406)
[13] = molecular target: DNA dC->dU-editing enzyme APOBEC-3G (Homo sapiens, UniProt Q9HC16); assay: Dose Response confirmation of small molecule APOBEC3G DNA Deaminase Inhibitors via a fluorescence-based single-stranded DNA deaminase assay. [Related pubchem assays (depositor defined):AID493012, AID493028]; format: functional
NADPH oxidase 1 = molecular target: T3, NADPH oxidase 1 (Homo sapiens, UniProt Q9Y5S8); format: functional, cell-based;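 further: Cell-based assay with luminescence read-out, IC50 derived from inhibitor dose-response curves; intracellular ROS from endogenous NOX1 in intact HT29 colon cancer cells; potency of inhibitors that lower the ROS luminescence signal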
T3 sequence (Q9Y5S8 whole entry): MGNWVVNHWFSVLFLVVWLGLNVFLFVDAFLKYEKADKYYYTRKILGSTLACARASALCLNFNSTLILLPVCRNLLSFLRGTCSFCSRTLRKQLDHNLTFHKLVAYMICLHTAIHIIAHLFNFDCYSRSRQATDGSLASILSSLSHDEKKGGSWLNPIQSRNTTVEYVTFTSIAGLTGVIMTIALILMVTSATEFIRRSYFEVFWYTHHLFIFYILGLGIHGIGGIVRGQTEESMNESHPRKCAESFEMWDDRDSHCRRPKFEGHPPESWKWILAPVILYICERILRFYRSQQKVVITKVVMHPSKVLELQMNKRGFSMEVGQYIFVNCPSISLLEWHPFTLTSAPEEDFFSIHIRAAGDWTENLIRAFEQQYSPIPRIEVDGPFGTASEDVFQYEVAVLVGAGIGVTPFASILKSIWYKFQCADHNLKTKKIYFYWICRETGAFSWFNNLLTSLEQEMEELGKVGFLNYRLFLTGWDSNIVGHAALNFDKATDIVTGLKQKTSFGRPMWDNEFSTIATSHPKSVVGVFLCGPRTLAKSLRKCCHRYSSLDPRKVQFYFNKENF

[14] = molecular target: T4, Microphthalmia-associated transcription factor (Homo sapiens, UniProt O75030); assay: TRPM1 promoter luciferase signal decrease, dose response, MITF inhibitor project, cell-based, SK-MEL-5, cherry-picked, set 3 (AID 493073); format: functional
T4 sequence (O75030 whole entry): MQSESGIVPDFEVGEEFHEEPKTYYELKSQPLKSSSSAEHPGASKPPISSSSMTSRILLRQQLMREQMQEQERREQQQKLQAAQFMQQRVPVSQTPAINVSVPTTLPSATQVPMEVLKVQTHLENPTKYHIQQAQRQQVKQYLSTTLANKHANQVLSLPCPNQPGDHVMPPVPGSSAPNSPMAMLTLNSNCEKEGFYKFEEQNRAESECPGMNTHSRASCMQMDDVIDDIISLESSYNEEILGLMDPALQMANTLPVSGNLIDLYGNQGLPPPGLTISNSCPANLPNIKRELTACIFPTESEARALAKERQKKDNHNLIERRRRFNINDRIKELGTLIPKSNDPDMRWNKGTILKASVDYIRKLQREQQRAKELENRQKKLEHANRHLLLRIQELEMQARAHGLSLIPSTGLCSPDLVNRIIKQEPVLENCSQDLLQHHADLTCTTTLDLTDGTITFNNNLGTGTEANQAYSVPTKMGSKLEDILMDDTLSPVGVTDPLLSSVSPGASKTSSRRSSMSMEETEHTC

[15] = HeLa cell cytotoxicity, dose response, cytotoxicity control for MgcRacGAP inhibitor project (AID 624300); format: functional
[16] = P. falciparum 3D7-ScDHODH growth inhibitors, dose response, SYBR Green, dry powder samples (AID 1159570); format: functional, cell-based;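 further: parasite growth measured after 72 hours of compound exposure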
[17] = HepG2 cell cytotoxicity, dose response, cytotoxicity control, plate reader, dry powder samples (AID 1159569); format: functional, cell-based;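 further: inhibitor potency with signal falling toward the positive control level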
[18] = P. falciparum ATP4 D1247Y mutant growth inhibitors, dose response, NITD609-resistant line, SYBR Green, dry powder (AID 1159571); format: functional, cell-based;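 further: parasites synchronized at ring stage by sorbitol before testing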
[19] = P. falciparum Dd2 growth inhibitors, dose response, SYBR Green, dry powder samples (AID 1159566); format: functional, cell-based;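 further: potency for growth inhibition with lower SYBR green DNA signal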
[20] = molecular target: T5, DNA repair protein RAD52 homolog (Homo sapiens, UniProt P43351); format: functional, biochemical
T5 sequence (P43351 whole entry): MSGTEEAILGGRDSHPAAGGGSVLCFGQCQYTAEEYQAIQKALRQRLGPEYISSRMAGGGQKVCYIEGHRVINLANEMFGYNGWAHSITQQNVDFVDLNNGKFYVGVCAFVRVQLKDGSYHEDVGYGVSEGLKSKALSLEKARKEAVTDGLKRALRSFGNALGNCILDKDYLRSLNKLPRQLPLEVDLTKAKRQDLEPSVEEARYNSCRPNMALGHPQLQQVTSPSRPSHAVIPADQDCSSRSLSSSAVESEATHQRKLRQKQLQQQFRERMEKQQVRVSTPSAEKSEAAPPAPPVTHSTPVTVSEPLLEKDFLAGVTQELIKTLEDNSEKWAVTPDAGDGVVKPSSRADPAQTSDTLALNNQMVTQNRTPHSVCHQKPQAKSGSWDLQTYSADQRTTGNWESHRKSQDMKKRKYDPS

[21] = LGR2 antagonists, dose response, cell-based, HEK293, CRE-luciferase reporter, cherry pick, set 2 (AID 743343); format: functional;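 further: transfected cells were stimulated with diluted bursicon conditioned medium after compound addition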
[22] = MC4R antagonists, dose response, counter-screen for LGR2 antagonist project, cell-based, plate reader, cherry pick (AID 743444); format: functional;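 further: transfected HEK 293 cells stimulated with alpha-MSH peptide; potency of inhibitors of the alpha-MSH evoked signal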

Chain of Glyceraldehyde-3-phosphate dehydrogenase (P04406 whole entry): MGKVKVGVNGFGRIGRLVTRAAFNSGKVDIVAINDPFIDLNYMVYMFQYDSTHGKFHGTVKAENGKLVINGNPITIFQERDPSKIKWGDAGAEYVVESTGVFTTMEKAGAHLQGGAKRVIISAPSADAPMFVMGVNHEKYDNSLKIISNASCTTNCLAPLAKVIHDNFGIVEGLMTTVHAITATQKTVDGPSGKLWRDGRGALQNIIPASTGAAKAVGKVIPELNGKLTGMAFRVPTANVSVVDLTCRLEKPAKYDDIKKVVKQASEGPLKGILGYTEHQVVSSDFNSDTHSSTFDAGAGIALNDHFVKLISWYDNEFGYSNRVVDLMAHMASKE
Chain of Nonstructural protein 1 (Q194T2 whole entry): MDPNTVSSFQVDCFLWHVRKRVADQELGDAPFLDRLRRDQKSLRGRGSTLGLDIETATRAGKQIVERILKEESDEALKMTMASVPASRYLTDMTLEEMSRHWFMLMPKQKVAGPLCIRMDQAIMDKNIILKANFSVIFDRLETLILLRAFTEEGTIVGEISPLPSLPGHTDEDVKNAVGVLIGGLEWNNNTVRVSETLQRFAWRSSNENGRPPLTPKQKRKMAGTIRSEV
Chain of DNA dC->dU-editing enzyme APOBEC-3G (Q9HC16 whole entry): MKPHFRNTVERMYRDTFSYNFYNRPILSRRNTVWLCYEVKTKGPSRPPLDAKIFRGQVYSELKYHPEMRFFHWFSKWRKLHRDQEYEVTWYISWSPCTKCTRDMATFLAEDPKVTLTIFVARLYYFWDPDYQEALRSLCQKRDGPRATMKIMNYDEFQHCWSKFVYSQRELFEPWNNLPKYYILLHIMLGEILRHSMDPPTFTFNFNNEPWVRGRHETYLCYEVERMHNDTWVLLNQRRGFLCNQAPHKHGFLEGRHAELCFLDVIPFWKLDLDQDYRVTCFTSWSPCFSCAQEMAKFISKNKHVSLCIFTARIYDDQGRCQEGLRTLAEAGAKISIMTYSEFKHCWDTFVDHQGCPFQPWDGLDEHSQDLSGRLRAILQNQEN

N#Cc1ccc(-c2ccc([C@@H]3[C@@H]4CN(S(=O)(=O)c5ccc(F)cc5)C[C@H]3N4)cc2)cc1
AC50 [1]: 1.57 µM (active) | AC50 [2]: 4.69 µM (active)

CCOc1ccc(-c2cc(CCCC(=O)NCc3ccc(C)cc3)no2)cc1
IC50 [3]: > 80 µM (inactive)

CO[C@@H]1CN(C)C(=O)c2cc(NC(=O)c3ccc(-c4ccccc4)cc3)ccc2OC[C@@H](C)NC[C@@H]1C
AC50 [4]: 14.2 µM (active) | AC50 [2]: 7.25 µM (active)

COc1ccc(-c2nc(CN3CCN(Cc4cccc(Cl)c4)CC3)c(C)o2)cc1
EC50 (cells): 0.377 µM (active) | EC50 [5]: < 0.1 µM (active) | EC50 [6]: > 60 µM (not active)

CC1=C(Cl)C2=NS(=O)(=O)CCN2C=C1Cl
AC50 [1]: 3.55 µM (active)

N#Cc1cccc(-c2ccc([C@@H]3[C@@H]4CN(S(=O)(=O)c5ccc(-c6ccccc6)cc5)C[C@H]3N4)cc2)c1
AC50 [1]: 1.82 µM (active)

COc1ccc(C(=O)CC(=O)O)c2c1C=CC(C)(C)O2 [URSINOIC ACID]
EC50 [7]: > 20 µM (not active) | EC50 [8]: > 20 µM (not active)

COc1ccc(CN2CCCC(CNC(=O)c3ccc(F)cc3)C2)c(C)c1C (stereo not given)
EC50 (cells): 0.09 µM (active) | EC50 [5]: < 0.1 µM (active) | EC50 [6]: > 30 µM (not active)

Cc1cc(N(C)C)ccc1N=Nc1ccc(N)cc1
IC50 [9]: 29.3 µM (active) | IC50 [3]: > 80 µM (inactive) | IC50 (Nonstructural protein 1): 21.4 µM (active)

COc1ccc2c3c(n(C)c2c1)[C@@H](CO)NCC31CCN(Cc2ccccc2Cl)CC1
AC50 [4]: 18.3 µM (active) | AC50 [2]: 2.44 µM (active)

COc1ccc(OC)c(S(=O)(=O)Nc2ccc(O)c3ccccc23)c1
IC50 [10]: > 100 µM (inactive) | CC50 [11]: 12.8 µM (active) | IC50 [12]: > 100 µM (not active)

COc1ccc(O)c(C(=O)C2c3ccccc3C(=O)N2c2ccc(C)cc2)c1 (stereo not given)
IC50 [13]: 37.4 µM (active) | CC50 [11]: > 40 µM (active)

O=C(O)c1nc(Cl)c(Cl)c(N/N=C/c2ccc(N3CCOCC3)c([N+](=O)[O-])c2)c1Cl
IC50 (NADPH oxidase 1): > 17 µM (not active)

O=C1/C(=C/c2ccccc2[N+](=O)[O-])COc2ccccc21
AC50 [1]: 4.77 µM (active) | IC50 [9]: 101 µM (active) | AC50 [14]: 9.8 µM (active) | CC50 [15]: 100 µM (active)

COc1ccccc1C#Cc1ccc([C@H]2[C@@H](C#N)N(C(=O)C3CCC3)[C@H]2CO)cc1
AC50 [4]: > 42 µM (inactive) | AC50 [16]: 1.16 µM (active) | AC50 [17]: 37.3 µM (active) | AC50 [18]: 0.795 µM (active) | AC50 [2]: 1.36 µM (active) | AC50 [19]: 0.51 µM (active)

CC(=O)Nc1cccc(Oc2nc(NCCN(C)C)nc3ccsc23)c1
AC50 [20]: 11.1 µM (active)

Cc1ccc(NC(=O)c2cnn(-c3ccccc3)c2C)cc1C
AC50 [21]: 7.23 µM (active) | AC50 [22]: 4.12 µM (active)

N#C[C@H]1[C@H](c2ccc(-c3ccccc3)cc2)[C@H](CO)N1C(=O)Cc1ccncc1
AC50 [4]: > 36 µM (inactive) | AC50 [2]: 3.05 µM (active)

O=[N+]([O-])c1cccc(/C=N/Nc2c(Cl)cncc2Cl)c1
IC50 (NADPH oxidase 1): > 17 µM (not active)

CCc1c(C)nc2cc(-c3cc(OC)cc(OC)c3)nn2c1N1CCCC1
EC50 [7]: 10.5 µM (active) | EC50 [8]: 13 µM (active)

O=C(Oc1ccccc1F)c1sc2ccccc2c1Cl
IC50 (NADPH oxidase 1): > 17 µM (not active)

O=C(Oc1cccc2ccccc12)c1sc2ccccc2c1Cl
IC50 (NADPH oxidase 1): > 17 µM (not active)

Cc1ccc([C@H]2C(C(=O)O)=CC[C@@H](c3cccc(Cl)c3)N2S(=O)(=O)c2ccc(C)cc2)cc1
CC50 [11]: > 40 µM (active)

COc1ccc(C2c3ccc4ccccc4c3Oc3ncn(CCN(C)C)c(=N)c32)cc1 (stereo not given)
EC50 [5]: 1.34 µM (active) | AC50 [20]: 19.9 µM (active) | EC50 [6]: 22.1 µM (active)

— ChEMBL document CHEMBL1201862, “PubChem BioAssay data set” (2004)
